Assay: Saturated solution of DDP or DCP in phosphate and borate buffers
Type: physicochemical
Details: 25° C.
Text: Samples containing DDP or DCP were protected from light as a precaution.

Row | SMILES | final concentration of saturated solution (borate buffer (pH of 7.94)) | final concentration of saturated solution (phosphate buffer)
1 | N.N.[Cl][Pt][Cl] [DDP, cisdiamminedichloroplatinum(II)] | 1.3 mg/mL | 1.3 mg/mL
2 | N.N.O=C([O-])C1(C(=O)[O-])CCC1.[Pt+2] [DCP, cis-Diammine(1,1-cyclobutanedicarboxylato)platinum(II)] | 15.6 mg/mL | 14.7 mg/mL

Source: US10189773B2, “In-vivo gelling pharmaceutical pre-formulation” (MEDICUS BIOSCIENCES, LLC, priority 2010, dated 2019)
